Here are results for five molecules from paper PMC12641067 (Clinical Pharmacology and Therapeutics, 2025).

One series concerns OATP1B transporters. Particulars: in vitro; cited from earlier work.
Series [1] can be described thus: Population PK model of probenecid (plasma data). The class given is in vivo, human. Conditions: population estimate (RSE%). The protocol:
(§1) Individual plasma and urine data of GCDCA‐S in healthy subjects were obtained from three clinical studies. Tatosian et al.[18] (study #1) consisted of two occasions: on both occasions, a microdose probe drug cocktail for multiple clinically relevant transporters was administered, with a single oral dose of 600 mg rifampicin co‐administered on the second occasion (n = 6; 3 males, 3 females). Willemin et al.[22] (study #2) was a two‐phase, cross‐over study with a 21‐day washout period between the two phases. […] Study #3 consists of unpublished data from the same study design as reported by Willemin et al. (n = 12; 12 males).[22]
(§2) Models were evaluated using visual predictive check (VPC) plots, goodness‐of‐fit (GOF) plots, parameter uncertainty, and changes in objective function. Model visualization and simulations were conducted in MATLAB 2024a (MathWorks, Natick, MA, USA) and Graph Pad Prism 10.2.2 (GraphPad software, La Jolla, CA, USA).
(§3) The structural model for rifampicin was based on our previous report,[33] and represents a one‐compartment model with zero‐order absorption and linear elimination.
(§4) The models for rifampicin, probenecid, and GCDCA‐S incorporated both inter‐individual variability for a number of model parameters (assuming log‐normal distribution) and residual unexplained variability (using a combination of proportional and additive error models).

The conditions of series [2]: cited from earlier work.
For series [3] the following is noted: cited from earlier work. This is another data set of the same source.
On the set-up of series [4]: method as in PMID 19131563, PMID 1150035, PMID 955496, PMID 34686523. Conditions: healthy human volunteers; cited from earlier work.
Series [5] can be described thus: GCDCA-S CLh and fe inferred from other reported clinical DDI studies. Format: in vivo, human. The protocol:
Verification of GCDCA-S fe estimated in this study
The validity of GCDCA-S CLh and renal excretion fraction (fe) estimated in this study was evaluated by incorporating the GCDCA-S mean plasma concentration profile in other reported clinical DDI studies into the developed POPPK models. In the absence of inhibitors, under steady-state conditions (where dC/dt=0), GCDCA-S ksyn is expressed as shown in Equation 13. In the presence of rifampicin, at t=Tmax (where dC/dt=0), GCDCA-S ksyn is expressed as shown in Equation 14. By solving equation 13 and 14, CLh can be derived as shown in Equation 15. The CLh and fe values inferred from data obtained in each […]
ksyn = Cbaseline × CLh + Cbaseline × CLR (Eq.13)
k = C × CLh + C × CL (Eq.14) […]
CL = CL × Cmax−Cbaseline > CL × Cmax−Cbaseline (Eq.15)
h R Cbaseline − Cmax × 1 R Cbaseline where Cbaseline (µM) is plasma baseline concentration, Cmax (µM) is maximum plasma concentration, ksyn (µmol/h) is the zero-order synthesis rate, CLh (L/h) is hepatic clearance, CLR (L/h) is renal clearance, Cu,RIF (µM) is unbound plasma concentration of rifampicin, Ki,u,OATP1B3 (µM) is unbound inhibition constant against OATP1B3 for rifampicin.
Table S6. GCDCA-S CLh and fe inferred from other reported clinical DDI studies Reported values Inferred values Ref […]
Cbaseline, plasma baseline concentration of GCDCA-S; Cmax, maximum plasma concentration of GCDCA-S; fe, fraction excreted in urine of GCDCA-S; CLh, hepatic clearance of GCDCA-S; CLR, renal clearance […]
a Average concentration from 0 to 24hours. b The CLR value reported by Willemin et al.17 was used for calculation. Even when using the reported CLR values from other studies, the corresponding increase in CLh ensures that the estimated fe value in this calculation remains unchanged.

The conditions of series [6]: monkey, in vivo; cited from earlier work.
Series [7] is described as follows: Synthesis rate of precursor bile acids and inferred GCDCA-S ksyn. On the set-up: species or system human. From the text: Verification of GCDCA-S ksyn estimated in this study
Literature data on the SULT2A1-mediated sulfation rate of GCDCA were not available. To evaluate the validity of GCDCA-S ksyn estimated by the POPPK model, GCDCA-S ksyn was assumed to be constrained by the synthesis rate of its precursor bile acids, and an inference was made based on the reported ksyn value of the corresponding precursors (CDCA and GCDCA).
In the absence of an inhibitor, ksyn of bile acids in the turnover model is represented by Equation 11.
Under steady-state conditions (where dC/dt=0), and given that the values of CLR of GCDCA-S and its corresponding precursors are relatively small compared to their CLh, ksyn of bile acids is expressed by Equation 12.10,11 It has been reported that the biliary excretion of bile acid sulfates is slower than that of their unsulfated forms,10,12 and assuming CLh,GCDCA-S < CLh,precursors, GCDCA-S ksyn was inferred, as […]
dt = [ksyn − (Cbile acid × CLh + Cbile acid × CLR)] × Vc (Eq.11)
ksyn = Cbile acid × CLh (Eq.12) where C (µM) is plasma concentration, ksyn (µmol/h) is the zero-order synthesis rate, CLh (L/h) is hepatic clearance, CLR (L/h) is renal clearance, VC (L) is the volume of distribution.
Table S5. GCDCA-S ksyn inferred from the ksyn of its corresponding precursors Biomarker Plasma baseline (nM) Denovo ksyn (µmol/h)
Reported value Ref Reported value Ref Notes
Biomarker Plasma baseline (nM) Inferred ksyn (µmol/h)
< 3.0 Based on information 1 […]
< 2.2 Based on information 3 aAveraged Cmean value of the baseline and control groups. bSynthesis rate of unconjugated chenodeoxycholic acid. cAveraged synthesis rate of chenodeoxycholic acid reported in six studies. dSynthesis rate of chenodeoxycholic acid-glycine.

For series [8] the following is noted: human, in vivo; cited from earlier work.
Series [9] in a line: Population PK turnover model of GCDCA-S (plasma and urine data). Format: in vivo, human. The protocol:
as §1, §2, §3
Different functions for evaluating diurnal fluctuation (e.g., Bateman, Power function) were investigated and applied to the synthesis rate in the GCDCA‐S model.
as §4

The conditions of series [10]: baseline and interaction profile after rifampicin administration; cited from earlier work.
Series [11] is described as follows: Plasma baseline concentration of bile acid biomarkers in clinical studies. Conditions: Study #3 (unpublished data); average concentration 0 to 24 hours, no inhibitor. Format: in vivo, human. The protocol: as §1
Details of the clinical studies are in Table S1 . […] Simulations were conducted in agreement with the reported study designs. The median (50th percentile) of the predicted concentrations, along with the 90% prediction interval (5th and 95th percentiles), was plotted and compared against the observed data.
Table S1. […]
Cbaseline, GCDCA-S plasma baseline concentration in the absence of inhibitors. a Plasma concentration of subjects with SLCO1B1 c.521TT genotype were used for model verification. b In both occasions, Letermovir 480mg was administered, and it has been reported that single-dose Letermovir led to small increases in GCDCA-S concentrations vs. predose levels. c Calculated based on the reported plasma AUC0-24h.

The mark [12] stands for this setting: information 2 (CDCA, average of six studies) and 3 (chenodeoxycholic acid-glycine).
The mark [13] stands for this setting: averaged Cmean value of the baseline and control groups.
Setting [14] is: final model (without sex effect), population estimate (RSE%).
[15] abbreviates: model with sex effect, population estimate (RSE%).

Several values for one entry are separate records, joined by “and”; a condition that tells them apart may be missing. Equal entries are not always repeated. Structures can show the parent of a compound that is named as a salt. Where two headings read alike, the source gives them in different places.

`CCCN(CCC)S(=O)(=O)c1ccc(C(=O)O)cc1` [PROB, probenecid]: the “inhibition of OATP1B transporters” value in the series on OATP1B transporters is on record as “weakly inhibits”. Besides, the clearance in series [1] (both sexes, human, plasma, oral, 500 mg) is 15.8 mL/min. For the same molecule, in [1], the “V PROB” value is 17 (10) L. The “ka PROB” value in [1] (500 mg oral approx. every 6 h) was 1.1 (37) /h.
As to `C[C@H](CCC(=O)O)[C@H]1CC[C@H]2[C@@H]3[C@H](O)C[C@@H]4C[C@H](O)CC[C@]4(C)[C@H]3CC[C@]12C` [CDCA, chenodeoxycholic acid], the Denovo ksyn is 17 µmol/h in series [2] (setting [12]) and 18 µmol/h in [2] (synthesis rate of unconjugated chenodeoxycholic acid (information 1)). Moreover, in series [3] (setting [13]), the Plasma baseline was 510 nM.
Regarding `C[C@H](CCC(=O)O)[C@H]1CC[C@H]2[C@@H]3CC[C@@H]4C[C@H](OS(=O)(=O)O)CC[C@]4(C)[C@H]3CC[C@]12C` [lithocholic acid sulfate], in series [4], the “fraction excreted in urine (f e)” value is on record as under 5%.
On to `C[C@H](CCC(=O)NCC(=O)O)[C@H]1CC[C@H]2[C@@H]3[C@H](O)C[C@@H]4C[C@H](OS(=O)(=O)O)CC[C@]4(C)[C@H]3CC[C@]12C` [GCDCA‐S, Glycochenodeoxycholic acid 3‐O‐sulfate], for which the “fe (inferred)” value in series [5] (from data of ref 2) is given as under 6.6%; in [5] (from data of ref 3), under 6.9%; in series [5] (from data of ref 4), under 3.3%; in [5] (from data of ref 16) it was under 3.1%. Besides, the “fraction excreted in urine (f e)” value in series [6] is reported as under 1%; in series [9] (estimated from POP-PK model), under 5%. The Inferred ksyn is given as under 3.0 µmol/h in series [7] (based on information 1), under 2.8 µmol/h in series [7] (based on information 2) and under 2.2 µmol/h in [7] (based on information 3). In addition, the CLR in [8] is 0.37 L/h. Also, the “V c,GCDCA–S” value in series [9] (final model (without sex effect), fixed at value initially estimated from the POP-PK model) was 4.8 L and 4.8 (FIXED) L. The “CL h,GCDCA–S” value in series [9] (setting [14]) is 15 (13) L/h. Moreover, the ksyn in series [9] (setting [14]) and in series [9] (setting [15]) was 1.0 (18) μmol/h in each case. Besides, the “biliary excretion as share of elimination” value in series [9] (from POP-PK model) is ~ 95% and > 95%. For the same molecule, the “Vc, GCDCAS” value in series [9] (model with sex effect, fixed) is on record as 4.8 L. Also, in [9] (setting [15]), the “CLR, GCDCAS” value is 0.31 (8) L/h. Moreover, the “CLh, GCDCAS” value in series [9] (setting [15]) is reported as 14 (13) L/h. Besides, in series [9] (setting [15]), the “COVSEX (fractional change in ksyn in women relative to men)” value is given as 0.065 (404). The “difference in plasma concentrations, chronic kidney disease patients relative to healthy individuals” value in series [10] was “no significant difference”. In addition, the Cbaseline in series [11] was 87 nM. In addition, the Plasma baseline in [3] (human, in vivo) is 85 nM.
Regarding `CC(CCC(=O)NCC(=O)O)C1CCC2C3C(O)CC4CC(O)CCC4(C)C3CCC12C` (centres unmarked) [GCDCA, glycochenodeoxycholic acid], in [2] (setting [12]), the Denovo ksyn is 14 µmol/h. In addition, the Plasma baseline in series [3] (setting [13]) was 540 nM.
